Measurements taken from patent US20060136140A1, “Method for identification and functional characterization of agents which modulate ion channel activity” (priority 2004, published 2006).
“Also recorded” adds a separate entry of the source. Where two headings read alike, the source gives them in different places. No end group written: not given here.

Experiments:
HERG K+ channel [1] = molecular target: T1, HERG K+ channel (Homo sapiens, UniProt Q12809)
Method: Cell functional assay using membrane potential dye—A membrane potential dye-based functional assay based on the HERG-expressing CHO cells has been developed. This assay was performed on the same library in parallel with the radioligand and AA-based functional assay. HERG-expressing CHO cells were plated as for the AA assay, except they were loaded with […] DiBAC4 instead of RbCl. Test samples or controls were added inside a Molecular Devices FlexStation and readings were taken over a 25 minute time frame.
Membrane Potential Assay Procedure—100 uL of 250,000 cells/mL in media were added to a 96-well assay plate and cultured overnight. The cells were washed with Hanks/HEPES buffer with 2 g/L of glucose (loading buffer) and 100 uL of warmed loading buffer was added. 80 uL of the FLIPR Membrane Potential dye (Molecular Devices; dissolved in loading buffer) was then added and the samples incubated for at 45 min at 37° C. Drugs (10× final concentration) in loading buffer were run along with no-drug controls. […] […] Maximum response plateau is expected at approximately 7 minutes. This value will be used for EC50 calculation. […] For the other “actives”, IC50 values will be determined in this assay and at 1 or 2 concentrations in the Rb^+ flux assay.
One whole cell based functional assay we employed was based on the voltage sensitive dye DiBac4, using a detection method originally developed by Dr. Vince Groppi of Pharmacia-Upjohn FLIPR and FlexStation fluorescence detection systems. Cells expressing ion channels like HERG protein are hyperpolarized in the resting state. Inhibition of ion channel activities allows cells to return to normal potential. As the cell membrane becomes more positive, dye migrates into cell membrane, increasing the quantum efficiency of the dye and thus increasing fluorescence. […] Large number of compounds may be readily tested in either 96- or 384-well format. The mechanism of detection is based on the dye translocation in response to changes of the membrane environment. In certain circumstances, it may be desirable to perform confirmatory assays.

HERG K+ channel [2] = molecular target: T1, HERG K+ channel; remark: listed apart in the source
Method: Cell functional assay using atomic absorption detection—Rubidium flux out of HERG-transfected CHO cells was characterized using a Shimadzu atomic absorption system. The amount of rubidium in the extracellular and intracellular compartments was determined after depolarization with 50 mM KCl, following a 3-minute incubation with test sample. The atomization buffer included 0.1% […]/1% HNO3 to suppress ionization of rubidium.
Minor modification of the published protocol was necessary due to different expression levels of the HERG protein in recombinant cells.
Two injections per sample are made into a Shimadzu AA and if the cv reaches 10%, a third injection is performed; the computer selects the two closer values.

HERG K+ channel [3] = molecular target: T1, HERG K+ channel; remark: listed apart in the source
HERG protein = HERG protein (Homo sapiens, UniProt Q12809)
Method: Membrane preparations and ligand binding assays—Frozen cell pellets were first thawed and homogenized in 10 to 20 ml of assay buffer. An aliquot was taken for protein determination and the remaining homogenate was centrifuged (48,000×g, 10 min., 4° C.). According to the determined protein concentration, the resultant pellet was suspended in Heylen's buffer and added to radioligand and test compound. […] Bound radioactivity was determined by liquid scintillation spectroscopy.
Sources of radioligand—Various different radioligands were used in order to identify candidates for a given binding site.

HERG potassium current = HERG potassium current (Homo sapiens, UniProt Q12809); settings: cited from earlier work
[4] = radiolabeled form, wild type vs recombinant CHO cells

T1 sequence (Q12809 whole entry): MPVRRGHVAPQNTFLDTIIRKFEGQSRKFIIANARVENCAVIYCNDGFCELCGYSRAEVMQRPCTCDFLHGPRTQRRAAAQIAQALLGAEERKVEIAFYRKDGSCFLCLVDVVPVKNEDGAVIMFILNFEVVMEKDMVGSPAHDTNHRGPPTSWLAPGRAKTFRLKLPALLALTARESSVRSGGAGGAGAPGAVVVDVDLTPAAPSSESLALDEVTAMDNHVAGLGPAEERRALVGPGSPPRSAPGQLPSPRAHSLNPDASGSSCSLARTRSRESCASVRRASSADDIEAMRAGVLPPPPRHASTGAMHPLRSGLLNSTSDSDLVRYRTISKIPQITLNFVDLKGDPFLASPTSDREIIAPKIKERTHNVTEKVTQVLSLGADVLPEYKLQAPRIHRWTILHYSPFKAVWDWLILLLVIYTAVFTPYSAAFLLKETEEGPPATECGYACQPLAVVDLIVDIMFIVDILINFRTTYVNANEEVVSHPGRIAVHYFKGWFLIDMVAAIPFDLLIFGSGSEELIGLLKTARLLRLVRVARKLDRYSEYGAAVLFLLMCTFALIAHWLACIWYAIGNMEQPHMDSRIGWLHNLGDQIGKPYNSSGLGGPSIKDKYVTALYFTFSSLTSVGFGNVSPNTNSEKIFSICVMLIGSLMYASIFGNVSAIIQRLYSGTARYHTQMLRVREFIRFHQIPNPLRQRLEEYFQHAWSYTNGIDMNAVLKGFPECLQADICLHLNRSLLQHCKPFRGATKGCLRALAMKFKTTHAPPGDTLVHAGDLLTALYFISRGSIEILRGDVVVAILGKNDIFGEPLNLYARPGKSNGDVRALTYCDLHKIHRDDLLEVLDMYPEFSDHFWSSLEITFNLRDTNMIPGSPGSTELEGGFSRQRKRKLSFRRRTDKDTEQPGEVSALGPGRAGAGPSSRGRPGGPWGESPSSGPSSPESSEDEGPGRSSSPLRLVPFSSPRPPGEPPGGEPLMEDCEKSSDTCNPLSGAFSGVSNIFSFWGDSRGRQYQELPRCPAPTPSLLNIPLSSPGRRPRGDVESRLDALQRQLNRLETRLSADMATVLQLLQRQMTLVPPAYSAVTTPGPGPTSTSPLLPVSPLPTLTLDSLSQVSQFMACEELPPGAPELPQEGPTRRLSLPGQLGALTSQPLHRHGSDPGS
Sequence of HERG protein (Q12809 whole entry): as above
Sequence of HERG potassium current (Q12809 whole entry): as above

COC(=O)C1=C(C)NC(C)=C(C(=O)OCCN(C)Cc2ccccc2)C1c1cccc([N+](=O)[O-])c1 (centres unmarked) [nicardipine, Nicardipine]
activity in the dye-based assay (HERG K+ channel [1]; 10^−5 M, room temperature): lack of functional activity; also recorded: did not exhibit any activity | activity in the dye-based assay (HERG K+ channel [1]; 10^−5 M, room temperature, listed as Nicardipine): lacked activity | activity in the assay using atomic absorption (HERG K+ channel [2]; 10^−5 M, room temperature): modestly active

c1ccc(CCCN2CCN(CCOC(c3ccccc3)c3ccccc3)CC2)cc1 [GBR12935]
activity in all three assays (HERG K+ channel [3]): consistent and relatively potent activity

Fc1ccc(C(OCCN2CCN(CCCc3ccccc3)CC2)c2ccc(F)cc2)cc1 [GBR12909]
activity in all three assays (HERG K+ channel [3]): consistent and relatively potent activity

CC(C)NCC(O)c1ccc(NS(C)(=O)=O)cc1 (racemic) [sotalol, (+/−)sotalol]
activity in the dye-based assay (HERG K+ channel [1]): did not exhibit any activity | activity in the assay using atomic absorption (HERG K+ channel [2]): modestly active

O=C(CCCN1CCC(O)(c2ccc(Cl)cc2)CC1)c1ccc(F)cc1 [haloperidol, Haloperidol]
inhibition of HERG channel (Rb+ efflux), dose response (HERG K+ channel [2]): completely inhibited

[^125I]-BeKm-1: custom preparation of the iodinated scorpion toxin (RPTDIKCSESYQCFPVCKSRFGKTNGRCVNGFCDCF; ends and bridges not checked; also: 125I iodinated, site not given here; UniProt Q9BKB7 22-57, looked up)
binding of radiolabeled ligand, specificity for the recombinant protein (HERG protein; [4]): did not observe sufficient binding

CC[C@H]1OC(=O)[C@H](C)[C@@H](O[C@H]2C[C@@](C)(OC)[C@@H](O)[C@H](C)O2)[C@H](C)[C@@H](O[C@@H]2O[C@H](C)C[C@H](N(C)C)[C@H]2O)[C@](C)(OC)C[C@@H](C)C(=O)[C@H](C)[C@@H](O)[C@]1(C)O [Clarithromycin]
IC50 (HERG potassium current): 45.7 µM

O=c1[nH]c2ccccc2n1C1CCN(CCCC(c2ccc(F)cc2)c2ccc(F)cc2)CC1 [pimozide, Pimozide]
activity in all three assays (HERG K+ channel [3]): consistent and relatively potent activity | inhibition of HERG channel (Rb+ efflux), dose response (HERG K+ channel [2]): completely inhibited

O=C(CCCN1CCC(O)(c2ccc(Cl)cc2)CC1)c1ccc(F)cc1 [[^3H]-Haloperidol]
binding of radiolabeled ligand, specificity for the recombinant protein (HERG protein): high binding levels with both the wild type and the recombinant CHO cells

COC(=O)[C@H]1[C@@H](c2ccc(F)cc2)C[C@@H]2CC[C@H]1N2C [WIN-35428]
binding of radiolabeled ligand, specificity for the recombinant protein (HERG protein; [4]): None of these compounds indicated sufficient specificity
